For 21 compounds, IC50 results are on record in patent publication US11136329B2, “JAK inhibitors” (Vimalan Biosciences, Inc., priority 2019, dated 2021).

Molecules are shown by their SMILES. A value given as a limit tells only on which side of the number the result lay.

Type in all cases: biochemical
One assay concerns the target JAK1 (Homo sapiens (Human), UniProt P23458). The assay can be described thus: JAK/TYK2 assay (Kinase Glo luminescence), JAK1. The conditions noted are these: 7.5 nM enzyme, 2 uM ATP, 30 uM IRS-1, 1 hr. The protocol:
(§1) 10 mM test compound stock or 1 mM control compound stock (tofocitinib, ruxolitinib or staurosporine) in DMSO was diluted to 0.4 mM in DMSO. A 3-fold series dilution was then performed in DMSO to generate 10 different compound concentrations. The assay was carried out in 384-well white plate. 0.5 uL of 40× compound DMSO solution at different concentrations was mixed with 10 uL 2× enzyme prepared in reaction buffer (20 mM HEPES, 10 mM MgCl2, 0.01% Tween, 1 mM DTT, pH 7.5). 10 uL 2× substrate mixture prepared in reaction buffer was then added to start the reaction. A short spin was done to settle down all solutions to the bottom of the plate. Final concentrations of test compound in the reaction mixture were 10000, 3333, 1111, 370, 123, 41.2, 13.7, 4.57, 1.52and 0.51 nM. Concentrations of control compound were ten times less. Enzymatic reaction was conducted at 25° C. for 1-2 hours. 10 uL of Kinase Glo Reagents was added to stop the reaction and generate the luminescent signal which was measured using Envision. Luminescence signal was inversely related to kinase activity. […] The mixture without any compound was the positive control.

Another assay concerns the target JAK2 (Homo sapiens (Human), UniProt O60674). The assay can be described thus: JAK/TYK2 assay (Kinase Glo luminescence), JAK2. The conditions noted are these: 0.8 nM enzyme, 2 uM ATP, 4 uM pEY, 1 hr. The protocol:
as §1

The target of the next assay is JAK3 (Homo sapiens (Human), UniProt P52333). The assay can be described thus: JAK/TYK2 assay (Kinase Glo luminescence), JAK3. The conditions noted are these: 1.5 nM enzyme, 2 uM ATP, 4 uM pEY, 1 hr. As to the method: as §1
JAK3, sequence (P52333 whole entry, species assumed): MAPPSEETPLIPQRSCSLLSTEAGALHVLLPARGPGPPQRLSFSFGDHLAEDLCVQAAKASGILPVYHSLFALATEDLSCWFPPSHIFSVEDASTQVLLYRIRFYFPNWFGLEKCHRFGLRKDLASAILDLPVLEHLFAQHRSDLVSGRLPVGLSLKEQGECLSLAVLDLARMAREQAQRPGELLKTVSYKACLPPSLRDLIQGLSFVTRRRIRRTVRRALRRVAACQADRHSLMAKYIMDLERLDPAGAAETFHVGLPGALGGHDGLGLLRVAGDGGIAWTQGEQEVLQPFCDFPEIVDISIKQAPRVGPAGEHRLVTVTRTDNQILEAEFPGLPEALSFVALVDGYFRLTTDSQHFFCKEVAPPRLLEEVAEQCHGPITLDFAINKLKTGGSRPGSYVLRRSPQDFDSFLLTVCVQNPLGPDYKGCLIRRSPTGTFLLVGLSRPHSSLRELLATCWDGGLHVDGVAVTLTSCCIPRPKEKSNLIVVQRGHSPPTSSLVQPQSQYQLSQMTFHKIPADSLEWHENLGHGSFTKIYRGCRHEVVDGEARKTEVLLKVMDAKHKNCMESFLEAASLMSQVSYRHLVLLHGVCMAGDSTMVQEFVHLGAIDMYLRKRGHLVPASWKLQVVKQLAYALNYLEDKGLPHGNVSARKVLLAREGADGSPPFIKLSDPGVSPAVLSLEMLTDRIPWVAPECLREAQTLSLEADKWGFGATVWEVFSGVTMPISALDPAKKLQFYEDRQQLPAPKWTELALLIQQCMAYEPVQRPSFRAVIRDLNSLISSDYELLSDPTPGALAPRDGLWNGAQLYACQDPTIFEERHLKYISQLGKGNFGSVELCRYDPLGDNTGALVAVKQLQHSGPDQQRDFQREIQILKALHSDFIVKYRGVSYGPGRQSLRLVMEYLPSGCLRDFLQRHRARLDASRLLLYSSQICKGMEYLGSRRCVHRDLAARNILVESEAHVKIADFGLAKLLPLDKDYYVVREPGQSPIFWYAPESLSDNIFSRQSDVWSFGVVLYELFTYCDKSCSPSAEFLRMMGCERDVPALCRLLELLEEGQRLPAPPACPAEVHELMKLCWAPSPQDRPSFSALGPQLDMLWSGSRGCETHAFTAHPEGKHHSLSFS
Another assay concerns the target TYK2 (Homo sapiens (Human), UniProt P29597). The assay can be described thus: JAK/TYK2 assay (Kinase Glo luminescence), TYK2. Particulars: 9 nM enzyme, 2 uM ATP, 30 uM IRS-1, 1 hr. As to the method: as §1

JAK2, sequence (O60674 whole entry, species assumed): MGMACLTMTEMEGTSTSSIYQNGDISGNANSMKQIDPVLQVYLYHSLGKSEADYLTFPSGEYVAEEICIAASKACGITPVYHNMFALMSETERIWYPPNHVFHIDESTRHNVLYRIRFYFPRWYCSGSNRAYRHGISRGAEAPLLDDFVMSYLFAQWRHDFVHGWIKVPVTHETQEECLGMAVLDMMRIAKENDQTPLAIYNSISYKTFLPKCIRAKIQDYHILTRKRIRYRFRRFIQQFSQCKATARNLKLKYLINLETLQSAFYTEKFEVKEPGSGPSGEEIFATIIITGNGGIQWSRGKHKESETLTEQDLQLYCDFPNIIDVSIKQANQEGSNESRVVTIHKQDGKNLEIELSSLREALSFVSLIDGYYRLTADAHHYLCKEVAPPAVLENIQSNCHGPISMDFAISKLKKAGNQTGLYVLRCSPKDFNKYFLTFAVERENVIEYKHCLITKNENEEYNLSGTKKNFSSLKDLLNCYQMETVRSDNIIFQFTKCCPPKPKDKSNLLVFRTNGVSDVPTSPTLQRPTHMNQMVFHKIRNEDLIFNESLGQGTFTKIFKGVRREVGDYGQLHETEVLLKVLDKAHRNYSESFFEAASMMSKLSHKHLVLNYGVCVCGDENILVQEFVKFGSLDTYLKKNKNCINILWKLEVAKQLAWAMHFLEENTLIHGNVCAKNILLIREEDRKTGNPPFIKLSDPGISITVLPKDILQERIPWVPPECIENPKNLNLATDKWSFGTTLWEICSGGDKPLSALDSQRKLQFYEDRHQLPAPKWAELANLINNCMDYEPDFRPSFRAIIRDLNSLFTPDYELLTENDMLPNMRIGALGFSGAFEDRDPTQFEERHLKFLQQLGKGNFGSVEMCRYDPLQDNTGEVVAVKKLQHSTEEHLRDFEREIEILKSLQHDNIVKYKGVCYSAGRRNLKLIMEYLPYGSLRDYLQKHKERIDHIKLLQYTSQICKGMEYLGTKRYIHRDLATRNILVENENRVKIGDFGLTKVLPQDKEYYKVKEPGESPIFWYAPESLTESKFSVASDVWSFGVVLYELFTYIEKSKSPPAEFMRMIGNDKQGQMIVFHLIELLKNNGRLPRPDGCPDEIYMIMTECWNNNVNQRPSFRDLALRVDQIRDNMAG
TYK2, sequence (P29597 whole entry, species assumed): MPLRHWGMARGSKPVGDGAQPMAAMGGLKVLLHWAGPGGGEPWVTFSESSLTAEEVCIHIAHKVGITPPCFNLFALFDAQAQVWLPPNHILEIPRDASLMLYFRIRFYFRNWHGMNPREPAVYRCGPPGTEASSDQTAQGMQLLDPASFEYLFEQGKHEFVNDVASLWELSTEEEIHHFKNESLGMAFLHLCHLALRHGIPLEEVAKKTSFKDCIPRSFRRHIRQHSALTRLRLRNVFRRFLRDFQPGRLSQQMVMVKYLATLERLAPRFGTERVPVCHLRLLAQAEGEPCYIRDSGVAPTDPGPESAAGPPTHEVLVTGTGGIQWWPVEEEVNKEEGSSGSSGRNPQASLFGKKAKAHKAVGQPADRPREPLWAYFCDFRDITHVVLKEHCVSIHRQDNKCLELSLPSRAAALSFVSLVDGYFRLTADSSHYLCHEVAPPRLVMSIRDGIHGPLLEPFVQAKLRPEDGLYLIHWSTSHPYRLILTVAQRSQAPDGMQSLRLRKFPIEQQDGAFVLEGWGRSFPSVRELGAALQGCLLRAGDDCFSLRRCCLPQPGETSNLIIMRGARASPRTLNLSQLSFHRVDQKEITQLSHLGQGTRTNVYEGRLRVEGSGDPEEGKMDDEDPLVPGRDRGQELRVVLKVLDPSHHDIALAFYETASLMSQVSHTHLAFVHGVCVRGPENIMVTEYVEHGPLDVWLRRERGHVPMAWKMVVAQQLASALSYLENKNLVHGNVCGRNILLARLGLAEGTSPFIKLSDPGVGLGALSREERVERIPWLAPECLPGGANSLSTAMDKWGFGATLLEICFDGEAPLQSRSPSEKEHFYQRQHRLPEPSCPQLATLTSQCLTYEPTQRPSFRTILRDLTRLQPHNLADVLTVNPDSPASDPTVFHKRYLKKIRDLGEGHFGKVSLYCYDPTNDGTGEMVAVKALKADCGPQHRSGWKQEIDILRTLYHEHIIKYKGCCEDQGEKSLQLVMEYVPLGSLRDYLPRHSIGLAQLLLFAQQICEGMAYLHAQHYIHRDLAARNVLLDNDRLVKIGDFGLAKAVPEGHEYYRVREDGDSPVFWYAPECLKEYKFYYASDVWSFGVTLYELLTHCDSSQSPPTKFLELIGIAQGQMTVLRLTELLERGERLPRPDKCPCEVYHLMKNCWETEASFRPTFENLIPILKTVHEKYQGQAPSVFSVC
JAK1, sequence (P23458 whole entry, species assumed): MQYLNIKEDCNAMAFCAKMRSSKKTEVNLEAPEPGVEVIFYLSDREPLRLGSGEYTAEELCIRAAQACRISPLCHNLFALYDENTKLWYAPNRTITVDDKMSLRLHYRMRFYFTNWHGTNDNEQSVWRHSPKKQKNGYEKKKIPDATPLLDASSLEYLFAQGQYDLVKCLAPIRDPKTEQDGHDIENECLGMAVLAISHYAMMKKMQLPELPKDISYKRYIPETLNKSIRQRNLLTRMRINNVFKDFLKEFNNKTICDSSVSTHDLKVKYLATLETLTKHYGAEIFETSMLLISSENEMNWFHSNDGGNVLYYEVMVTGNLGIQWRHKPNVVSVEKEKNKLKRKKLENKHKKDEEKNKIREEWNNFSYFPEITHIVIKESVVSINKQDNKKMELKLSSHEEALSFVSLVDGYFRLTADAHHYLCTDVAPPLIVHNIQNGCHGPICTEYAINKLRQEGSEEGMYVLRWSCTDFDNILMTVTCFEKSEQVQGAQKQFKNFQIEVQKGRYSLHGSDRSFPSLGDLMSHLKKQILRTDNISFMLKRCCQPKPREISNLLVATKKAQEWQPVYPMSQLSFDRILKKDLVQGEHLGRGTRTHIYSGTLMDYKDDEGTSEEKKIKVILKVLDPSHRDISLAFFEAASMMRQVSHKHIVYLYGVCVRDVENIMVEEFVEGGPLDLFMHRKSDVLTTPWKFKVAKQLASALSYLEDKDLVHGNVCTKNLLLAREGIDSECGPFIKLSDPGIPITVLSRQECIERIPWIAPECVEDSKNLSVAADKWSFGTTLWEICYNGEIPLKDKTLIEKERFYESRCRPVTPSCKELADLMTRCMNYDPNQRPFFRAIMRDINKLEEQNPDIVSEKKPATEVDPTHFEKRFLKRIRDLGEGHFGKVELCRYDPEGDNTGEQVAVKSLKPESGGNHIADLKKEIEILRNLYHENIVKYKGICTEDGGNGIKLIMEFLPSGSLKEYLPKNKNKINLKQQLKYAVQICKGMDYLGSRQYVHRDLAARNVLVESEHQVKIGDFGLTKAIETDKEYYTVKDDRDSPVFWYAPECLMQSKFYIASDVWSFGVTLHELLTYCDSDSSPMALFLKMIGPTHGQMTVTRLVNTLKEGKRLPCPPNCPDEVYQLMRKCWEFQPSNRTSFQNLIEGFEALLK

Regarding `CCC(CC)Cn1ccc2cnc(Nc3cnn(CC(=O)OC4CC(C#N)C4)c3)nc21` (stereo not drawn) [Compound 91, 3-cyanocyclobutyl 2-(4-((7-(2-ethylbutyl)-7H-pyrrolo[2,3-d]pyrimidin-2-yl)amino)-1H-pyrazol-1-yl)acetate], the IC50 at JAK1, against JAK2, against JAK3 and on TYK2 was < 100 nM each time.

With `CCOC(=O)Cn1cc(Nc2ncc3ccn(Cc4csc(C)n4)c3n2)cn1` [Compound 55, ethyl 2-(4-((7-((2-methylthiazol-4-yl)methyl)-7H-pyrrolo[2,3-d]pyrimidin-2-yl)amino)-1H-pyrazol-1-yl)acetate], the half-maximal inhibitory concentration (IC50) is 100 to 1000 nM against JAK1, < 100 nM on JAK2, < 100 nM against JAK3 and 100 to 1000 nM on TYK2.

For the compound `CC[C@H](Cn1ccc2cnc(Nc3cnn(C4CCOC4=O)c3)nc21)C(C)C` (stereo partly drawn) [Compound 82, 3-(4-((7-((S)-2-ethyl-3-methylbutyl)-7H-pyrrolo[2,3-d]pyrimidin-2-yl)amino)-1H-pyrazol-1-yl)dihydrofuran-2(3H)-one], the IC50 at JAK1, at JAK2, against JAK3 and against TYK2 was < 100 nM throughout.

Turning to `CC[C@H](Cn1ccc2cnc(Nc3cnn(CC(=O)OCC4COC4)c3)nc21)C(C)C` [Compound 141, oxetan-3-ylmethyl (S)-2-(4-((7-(2-ethyl-3-methylbutyl)-7H-pyrrolo[2,3-d]pyrimidin-2-yl)amino)-1H-pyrazol-1-yl)acetate], the IC50 at JAK1, on JAK2, against JAK3 and against TYK2 was < 100 nM in each case.

Turning to `O=C(O)Cn1cc(Nc2ncc3ccn(CC4CCCCC4(F)F)c3n2)cn1` (stereo not drawn) [Compound 37, 2-(4-((7-((2,2-difluorocyclohexyl)methyl)-7H-pyrrolo[2,3-d]pyrimidin-2-yl)amino)-1H-pyrazol-1-yl)acetic acid], the IC50 against JAK1, against JAK2, against JAK3 and at TYK2 was < 100 nM each time.

In the case of `CCC(Cn1ccc2cnc(Nc3cnn(CC(=O)OCC(C)C)c3)nc21)C(C)C` (stereo not drawn) [Compound 108, isobutyl 2-(4-((7-(2-ethyl-3-methylbutyl)-7H-pyrrolo[2,3-d]pyrimidin-2-yl)amino)-1H-pyrazol-1-yl)acetate], the concentration for half-maximal inhibition (IC50) at JAK1, against JAK2, on JAK3 and on TYK2 was < 100 nM in each case.

In the case of `CCOC(=O)Cn1cc(Nc2ncc3ccn(CC(C(C)C)C(C)C)c3n2)cn1` [Compound 50, ethyl 2-(4-((7-(2-isopropyl-3-methylbutyl)-7H-pyrrolo[2,3-d]pyrimidin-2-yl)amino)-1H-pyrazol-1-yl)acetate], the half-inhibitory concentration (IC50) against JAK1, against JAK2, against JAK3 and against TYK2 was < 100 nM each time.

For `CCOC(=O)Cn1cc(Nc2ncc3ccn(CC(C)(C)C)c3n2)cn1` [Compound 20, ethyl 2-(4-((7-neopentyl-7H-pyrrolo[2,3-d]pyrimidin-2-yl)amino)-1H-pyrazol-1-yl)acetate], the IC50 against JAK1 is 100 to 1000 nM; against JAK2, 100 to 1000 nM; against JAK3 it was < 100 nM; against TYK2 it was < 100 nM.

As to `CCOC(=O)Cn1cc(Nc2ncc3ccn(CC4CCCC(F)(F)C4)c3n2)cn1` (stereo not drawn) [Compound 36, ethyl 2-(4-((7-((3,3-difluorocyclohexyl)methyl)-7H-pyrrolo[2,3-d]pyrimidin-2-yl)amino)-1H-pyrazol-1-yl)acetate], the half-maximal inhibitory concentration (IC50) at JAK1, against JAK2, against JAK3 and at TYK2 was < 100 nM in each case.

With `CC[C@H](Cn1ccc2cnc(Nc3cnn([C@@H]4CCOC4=O)c3)nc21)C(C)C` [Compound 82A, (R)-3-(4-((7-((S)-2-ethyl-3-methylbutyl)-7H-pyrrolo[2,3-d]pyrimidin-2-yl)amino)-1H-pyrazol-1-yl)dihydrofuran-2(3H)-one], the half-maximal inhibitory concentration (IC50) against JAK1, on JAK2, against JAK3 and against TYK2 was < 100 nM in each case.

Take `CCOC(=O)Cn1cc(Nc2ncc3ccn(CC(CC)CC)c3n2)cn1` [Compound 8, ethyl 2-(4-((7-(2-ethylbutyl)-7H-pyrrolo[2,3-d]pyrimidin-2-yl)amino)-1H-pyrazol-1-yl)acetate]: the IC50 against JAK1, against JAK2, against JAK3 and against TYK2 was < 100 nM in each case.

For the compound `CC(C)OC(=O)Cn1cc(Nc2ncc3ccn(C[C@@H](CCCl)C(C)C)c3n2)cn1` [Compound 98, isopropyl (S)-2-(4-((7-(4-chloro-2-isopropylbutyl)-7H-pyrrolo[2,3-d]pyrimidin-2-yl)amino)-1H-pyrazol-1-yl)acetate], the IC50 against JAK1, on JAK2, against JAK3 and at TYK2 was < 100 nM each time.

As to `CCOC(=O)Cn1cc(Nc2ncc3ccn(CC(CC)CO)c3n2)cn1` (stereo not drawn) [Compound 65, ethyl 2-(4-((7-(2-(hydroxymethyl)butyl)-7H-pyrrolo[2,3-d]pyrimidin-2-yl)amino)-1H-pyrazol-1-yl)acetate], the concentration for half-maximal inhibition (IC50) against JAK1, at JAK2, against JAK3 and on TYK2 was < 100 nM in each case.

As to `CCOC(=O)Cn1cc(Nc2ncc3ccn(Cc4ccsc4)c3n2)cn1` [Compound 10, ethyl 2-(4-((7-(thiophen-3-ylmethyl)-7H-pyrrolo[2,3-d]pyrimidin-2-yl)amino)-1H-pyrazol-1-yl)acetate], the half-inhibitory concentration (IC50) against JAK1, on JAK2, on JAK3 and against TYK2 was < 100 nM each time.

Regarding `CC[C@H](Cn1ccc2cnc(Nc3cnn(CC(=O)O[C@@H]4CCN(C)C4)c3)nc21)C(C)C` [Compound 139, (R)-1-methylpyrrolidin-3-yl 2-(4-((7-((S)-2-ethyl-3-methylbutyl)-7H-pyrrolo[2,3-d]pyrimidin-2-yl)amino)-1H-pyrazol-1-yl)acetate], the half-inhibitory concentration (IC50) against JAK1, on JAK2, against JAK3 and against TYK2 was < 100 nM each time.

`CCOC(=O)Cn1cc(Nc2ncc3ccn(C[C@H]4CC[C@@H](O)CC4)c3n2)cn1` [Compound 52, ethyl 2-(4-((7-(((1s,4s)-4-hydroxycyclohexyl)methyl)-7H-pyrrolo[2,3-d]pyrimidin-2-yl)amino)-1H-pyrazol-1-yl)acetate]: the IC50 against JAK1 was 100 to 1000 nM; against JAK2, < 100 nM; against JAK3, < 100 nM; at TYK2, < 100 nM.

`CCOCCOC(=O)Cn1cc(Nc2ncc3ccn(CC(CC)C(C)C)c3n2)cn1` (stereo not drawn) [Compound 86, 2-ethoxyethyl 2-(4-((7-(2-ethyl-3-methylbutyl)-7H-pyrrolo[2,3-d]pyrimidin-2-yl)amino)-1H-pyrazol-1-yl)acetate]: the IC50 at JAK1, at JAK2, against JAK3 and against TYK2 was < 100 nM each time.

On to `CCOC(=O)Cn1cc(Nc2ncc3ccn(C[C@H]4CC[C@H](OC)CC4)c3n2)cn1` [Compound 129, ethyl 2-(4-((7-(((1r,4r)-4-methoxycyclohexyl)methyl)-7H-pyrrolo[2,3-d]pyrimidin-2-yl)amino)-1H-pyrazol-1-yl)acetate], for which the IC50 on JAK1 is 100 to 1000 nM; against JAK2, < 100 nM; against JAK3, < 100 nM; on TYK2, < 100 nM.

For the compound `CCC(CC)Cn1ccc2cnc(Nc3cnn(CC(=O)OCCC#N)c3)nc21` [Compound 89, 2-cyanoethyl 2-(4-((7-(2-ethylbutyl)-7H-pyrrolo[2,3-d]pyrimidin-2-yl)amino)-1H-pyrazol-1-yl)acetate], the IC50 against JAK1, on JAK2, against JAK3 and at TYK2 was < 100 nM in each case.

Regarding `CC[C@H](Cn1ccc2cnc(Nc3cnn(CC(=O)O)c3)nc21)C(C)C` [Compound 104, (S)-2-(4-((7-(2-ethyl-3-methylbutyl)-7H-pyrroIo[2,3-d]pyrimidin-2-yl)amino)-1H-pyrazol-1-yl)acetic acid], the IC50 against JAK1, at JAK2, against JAK3 and against TYK2 was < 100 nM in each case.

Regarding `CC[C@H](Cn1ccc2cnc(Nc3cnn(CC(=O)O[C@H]4CCN(C)C4)c3)nc21)C(C)C` [Compound 138, (S)-1-methylpyrrolidin-3-yl 2-(4-((7-((S)-2-ethyl-3-methylbutyl)-7H-pyrrolo[2,3-d]pyrimidin-2-yl)amino)-1H-pyrazol-1-yl)acetate], the half-maximal inhibitory concentration (IC50) on JAK1, against JAK2, on JAK3 and against TYK2 was < 100 nM in each case.
